Laboratory results taken from PMC11785675, “Phase Ib study of the oral PI3Kδ inhibitor linperlisib in patients with advanced solid tumors” (International Journal of Clinical Oncology, 2024).

Legend:
[1] = Phase Ib trial: pharmacokinetics of linperlisib 80 mg once daily; type: in vivo, human
Description: Pharmacokinetic analysis included the first 13 patients enrolled in this study who received linperlisib at 80 mg once daily.

[2] = tested on: advanced solid tumors; assay: Phase Ib trial of oral linperlisib: efficacy (RECIST 1.1); type: in vivo, human; conditions: 80 mg/day oral;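 also: Open-label single-arm multicenter study in China, once-daily dosing over 28-day cycles, response judged by contrast CT or MRI every 8 weeks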
Description: (§1) This phase Ib, single-arm, open-label, multi-center clinical trial recruited patients with advanced or metastatic solid tumors from eight sites in China.
(§2) The main exclusion criteria included prior use of PI3K targeted agents and clinically symptomatic central nervous system metastasis or meningeal metastasis.
(§3) Patients received oral linperlisib 80 mg once per day, taken with warm water either 1 h prior to or 2 h after a meal every day, in a 28-day cycle. Dose adjustments, including holds and reductions, were mandated for grade 3/4 hematologic and grade 3 non-hematologic toxicity. Treatment with linperlisib continued until disease progression, intolerable toxicity, withdrawal of informed consent, death or any other conditions deemed by the investigator to warrant drug discontinuation.
(§4) Physical examination, assessment of ECOG performance status, clinical laboratory evaluations, electrocardiogram, and other safety evaluations were conducted to assess safety. AEs were graded according to the National Cancer Institute Common Terminology Criteria for Adverse Events (CTCAE), Version 5.0. All AEs were recorded from the time of signing the informed consent to at least 30 days after the last dose, and were followed until resolution or stabilization. Patients underwent radiographic assessments every 8 weeks by enhanced computed tomography or magnetic resonance imaging according to RECIST 1.1.
(§5) The primary endpoint was safety as assessed by monitoring the frequency, duration, and severity of AEs. Secondary endpoints were efficacy endpoints, including ORR, DCR, and progression-free survival (PFS).
(§6) Baseline data are presented descriptively. ORR is determined by the proportion of patients who achieve a confirmed complete response (CR) or partial response (PR) as the best overall response, and is presented with CIs. PFS and overall survival (OS) curves are generated using the Kaplan–Meier method. The incidence of AEs and serious AEs (SAEs) are reported as numbers and percentages.

[3] = tested on: patients with advanced solid tumors; conditions: 80 mg/day oral;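 also: phase Ib open-label single-arm trial, once-daily dosing in 28-day cycles, adverse events graded by NCI CTCAE v5.0, recorded until at least 30 days post last dose, incidence as patient counts and percentages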
Description: as §1, §2, §3, §4, §5, §6

[4] = tested on: relapsed or refractory B-cell hematological malignancies; parameters: method as in PMID 34425850; conditions: phase Ia, cited from earlier work
[5] = single-dose 14C-YY-20394 tracer study; cited from earlier work
[6] = tested on: CT26 cancer model; conditions: preclinical findings, no reference given; cited from earlier work
[7] = tested on: malignant B cells and primary tumor cell lines; conditions: preclinical data, no reference given; cited from earlier work

## COc1ncc(-c2nc(N3CCOCC3)nc3c(CN4CCC(C(C)(C)O)CC4)cc(F)cc23)cc1NS(C)(=O)=O [linperlisib]
[1]; 80 mg once daily
  Accumulation after multiple administrations: no accumulation was observed
[1]; 80 mg once daily, cycle 1, day 7, range 68.4–232
  Trough levels: 167.7 ng/mL
[1]; 80 mg once daily, listed as Linperlisib
  Accumulation after multiple administrations: no accumulation is observed
[1]; 80 mg oral
  Absorption after a single dose: rapidly absorbed
[1]; human, plasma, single dose oral 80 mg qd, n = 13, read-out: Vz/F, mean (SD)
  Vd/F: 251 L
[1]; human, single dose oral 80 mg qd, n = 13, plasma, read-out: AUC0-24, mean (SD)
  AUC(0-t): 4920 ng·h/mL
[1]; human, single dose oral 80 mg qd, n = 13, plasma, read-out: AUC0-∞, mean (SD)
  AUC(0-inf): 7260 ng·h/mL
[1]; human, single dose oral 80 mg qd, n = 13, plasma, read-out: Cmax, mean (SD)
  Cmax: 364 ng/mL
[1]; human, single dose oral 80 mg qd, n = 13, plasma, read-out: MRT, median (range)
  MRT: 18.9 h
[1]; human, single dose oral 80 mg qd, n = 13, plasma, read-out: T1/2, mean (SD) (converted)
  half-life: 858 min
[1]; human, single dose oral 80 mg qd, n = 13, plasma, read-out: Tmax, median (range)
  Tmax: 3.9 h
[1]; single dose oral 80 mg qd, n = 13
  CL/F, mean (SD): 13.5 (4.9) L/h
[2]
  DCR in patients with thymic carcinoma: 50%
  DCR, patients with less than three prior lines of therapy: 46.3%
[2]; 94 patients
  Progressive disease as best response: Thirty-nine
  Stable disease: 34 patients
[2]; 94 patients, 95% CI 1.79–1.88
  Median progression-free survival (PFS): 1.85 months
[2]; 94 patients, median follow-up 4.2 months
  Median overall survival (OS): not reached
[2]; 94 patients, one thymoma patient
  Complete response (CR) rate: 1.1%
[2]; all 94 patients, 95% CI 0.0–5.8
  Objective response rate (ORR): 1.1%
[2]; all 94 patients, 95% CI 27.5–47.8
  Disease control rate (DCR): 37.2%
[2]; n = 1
  DCR, anal cancer: 1 (100.0) n (%)
  DCR, endometrial cancer: 0 (0.0) n (%)
  DCR, esophageal cancer: 0 (0.0) n (%)
  DCR, lung neuroendocrine carcinoma: 1 (100.0) n (%)
  DCR, lung squamous cell carcinoma: 0 (0.0) n (%)
  DCR, oral cavity cancer: 1 (100.0) n (%)
  DCR, ovarian cancer: 1 (100.0) n (%)
  DCR, pancreatic cancer: 1 (100.0) n (%)
  DCR, parotid carcinoma: 0 (0.0) n (%)
  DCR, thymoma: 1 (100.0) n (%)
  ORR, anal cancer: 0 (0.0) n (%)
  ORR, endometrial cancer: 0 (0.0) n (%)
  ORR, esophageal cancer: 0 (0.0) n (%)
  ORR, lung neuroendocrine carcinoma: 0 (0.0) n (%)
  ORR, lung squamous cell carcinoma: 0 (0.0) n (%)
  ORR, oral cavity cancer: 0 (0.0) n (%)
  ORR, ovarian cancer: 0 (0.0) n (%)
  ORR, pancreatic cancer: 0 (0.0) n (%)
  ORR, parotid carcinoma: 0 (0.0) n (%)
  ORR, thymoma: 1 (100.0) n (%)
[2]; n = 2
  DCR, carcinoma of renal pelvis: 1 (50.0) n (%)
  DCR, cholangiocarcinoma: 0 (0.0) n (%)
  DCR, hepatocellular carcinoma: 0 (0.0) n (%)
  ORR, carcinoma of renal pelvis: 0 (0.0) n (%)
  ORR, cholangiocarcinoma: 0 (0.0) n (%)
  ORR, hepatocellular carcinoma: 0 (0.0) n (%)
[2]; n = 3
  DCR, gallbladder cancer: 2 (66.7) n (%)
  DCR, nasopharyngeal carcinoma: 2 (66.7) n (%)
  ORR, gallbladder cancer: 0 (0.0) n (%)
  ORR, nasopharyngeal carcinoma: 0 (0.0) n (%)
[2]; n = 4
  DCR, gastric cancer: 1 (25.0) n (%)
  ORR, gastric cancer: 0 (0.0) n (%)
[2]; n = 5
  DCR, renal cell carcinoma: 2 (40.0) n (%)
  ORR, renal cell carcinoma: 0 (0.0) n (%)
[2]; n = 6
  DCR, lung adenocarcinoma: 3 (50.0) n (%)
  ORR, lung adenocarcinoma: 0 (0.0) n (%)
[2]; n = 8
  DCR, breast cancer: 1 (12.5) n (%)
  ORR, breast cancer: 0 (0.0) n (%)
[2]; n = 9
  DCR, sarcoma: 3 (33.3) n (%)
  ORR, sarcoma: 0 (0.0) n (%)
[2]; n = 11
  DCR, colon cancer: 3 (27.3) n (%)
  ORR, colon cancer: 0 (0.0) n (%)
[2]; n = 13
  DCR, rectal cancer: 3 (23.1) n (%)
  ORR, rectal cancer: 0 (0.0) n (%)
[2]; n = 16
  DCR, thymic carcinoma: 8 (50.0) n (%)
  ORR, thymic carcinoma: 0 (0.0) n (%)
[2]; n = 25
  DCR, lung and mediastinal tumors, total: 13 (52.0) n (%)
  ORR, lung and mediastinal tumors, total: 1 (4.0) n (%)
[2]; n = 31
  DCR, other types of tumor, total: 11 (35.5) n (%)
  ORR, other types of tumor, total: 0 (0.0) n (%)
[2]; n = 38
  DCR, gastrointestinal tumors, total: 11 (28.9) n (%)
  ORR, gastrointestinal tumors, total: 0 (0.0) n (%)
[2]; thymoma, gallbladder cancer, anal canal squamous cell carcinoma, renal cell carcinoma, renal pelvis cancer
  Shrinkage of target lesions: more than 20%
[2]; two patients with HCC
  Target lesion change in patients with HCC: one of them had shrinkage of target lesions
[3]
  Incidence of hyperglycemia related to linperlisib, ≥ grade 3: 0%
[3]; 94 patients
  Grade ≥ 3 TEAE anemia: 3.2%
  Grade ≥ 3 TEAE diarrhea: 4.3%
  Grade ≥ 3 TEAE increased ALT: 3.2%
  Grade ≥ 3 TEAE increased AST: 3.2%
  Grade ≥ 3 TEAE increased blood alkaline phosphatase: 3.2%
  Grade ≥ 3 TEAE neutropenia: 3.2%
  Patients who suspended linperlisib due to TRAEs: 19.1%
  Patients who terminated linperlisib due to vomiting, esophagitis, gastritis, or drug eruption: 2.1%
  Patients who withdrew from the trial because of TRAEs: 5.3%
  Patients with SAEs related to linperlisib: 10.6%
  Patients with TEAEs of grade 3 or greater: 45.7%
  Patients with TRAEs of grade 3 or greater: 28.7%
  Patients with at least one TEAE: 97.9%
  Patients with at least one treatment-related AE (TRAE): 89.4%
  Patients with dose reduction (elevated γ-glutamyltransferase and diarrhea): 2.1%
  TEAE abdominal pain, all grades: 11 (11.7) n (%)
  TEAE abdominal pain, grade ≥ 3: 1 (1.1) n (%)
  TEAE anemia, all grades: 20 (21.3) n (%)
  TEAE anemia, all grades irrespective of causality: 21.3%
  TEAE anemia, grade ≥ 3: 3 (3.2) n (%)
  TEAE asthenia, all grades: 15 (16.0) n (%)
  TEAE asthenia, grade ≥ 3: 0 n (%)
  TEAE decreased appetite, all grades: 24 (25.5) n (%)
  TEAE decreased appetite, all grades irrespective of causality: 25.5%
  TEAE decreased appetite, grade ≥ 3: 1 (1.1) n (%)
  TEAE diarrhea, all grades: 11 (11.7) n (%)
  TEAE diarrhea, grade ≥ 3: 4 (4.3) n (%)
  TEAE elevated γ-glutamyltransferase, all grades: 18 (19.1) n (%)
  TEAE elevated γ-glutamyltransferase, grade ≥ 3: 2 (2.1) n (%)
  TEAE hypercholesterolemia, all grades: 12 (12.8) n (%)
  TEAE hypercholesterolemia, grade ≥ 3: 1 (1.1) n (%)
  TEAE hypertriglyceridemia, all grades: 10 (10.6) n (%)
  TEAE hypertriglyceridemia, grade ≥ 3: 0 n (%)
  TEAE hypoalbuminemia, all grades: 15 (16.0) n (%)
  TEAE hypoalbuminemia, grade ≥ 3: 0 n (%)
  TEAE hyponatremia, all grades: 15 (16.0) n (%)
  TEAE hyponatremia, grade ≥ 3: 1 (1.1) n (%)
  TEAE increased ALT, all grades: 21 (22.3) n (%)
  TEAE increased ALT, all grades irrespective of causality: 22.3%
  TEAE increased ALT, grade ≥ 3: 3 (3.2) n (%)
  TEAE increased AST, all grades: 25 (26.6) n (%)
  TEAE increased AST, all grades irrespective of causality: 26.6%
  TEAE increased AST, grade ≥ 3: 3 (3.2) n (%)
  TEAE increased blood alkaline phosphatase, all grades: 15 (16.0) n (%)
  TEAE increased blood alkaline phosphatase, grade ≥ 3: 3 (3.2) n (%)
  TEAE increased blood bilirubin, all grades: 16 (17.0) n (%)
  TEAE increased blood bilirubin, grade ≥ 3: 1 (1.1) n (%)
  TEAE increased blood creatinine, all grades: 18 (19.1) n (%)
  TEAE increased blood creatinine, grade ≥ 3: 2 (2.1) n (%)
  TEAE increased blood lactate dehydrogenase, all grades: 13 (13.8) n (%)
  TEAE increased blood lactate dehydrogenase, grade ≥ 3: 0 n (%)
  TEAE leukopenia, all grades: 16 (17.0) n (%)
  TEAE leukopenia, grade ≥ 3: 1 (1.1) n (%)
  TEAE nausea, all grades: 16 (17.0) n (%)
  TEAE nausea, grade ≥ 3: 0 n (%)
  TEAE neutropenia, all grades: 13 (13.8) n (%)
  TEAE neutropenia, grade ≥ 3: 3 (3.2) n (%)
  TEAE protein urine present, all grades: 10 (10.6) n (%)
  TEAE protein urine present, grade ≥ 3: 0 n (%)
  TEAE proteinuria, all grades: 25 (26.6) n (%)
  TEAE proteinuria, all grades irrespective of causality: 26.6%
  TEAE proteinuria, grade ≥ 3: 0 n (%)
  TEAE pyrexia, all grades: 10 (10.6) n (%)
  TEAE pyrexia, grade ≥ 3: 0 n (%)
  TEAE rash, all grades: 14 (14.9) n (%)
  TEAE rash, grade ≥ 3: 2 (2.1) n (%)
  TEAE vomiting, all grades: 15 (16.0) n (%)
  TEAE vomiting, grade ≥ 3: 2 (2.1) n (%)
  TEAE weight loss, all grades: 20 (21.3) n (%)
  TEAE weight loss, all grades irrespective of causality: 21.3%
  TEAE weight loss, grade ≥ 3: 0 n (%)
  TRAE decreased appetite: 18.1%
  TRAE elevated γ-glutamyltransferase: 16.0%
  TRAE increased ALT: 18.1%
  TRAE increased AST: 22.3%
  TRAE proteinuria: 21.3%
  TRAEs leading to death: No TRAEs leading to death were reported
[3]; 94 patients, 29 SAEs
  Patients with SAEs of grade 3 or greater: 27.7%
[3]; 94 patients, data cutoff April 03, 2023
  Patients who discontinued treatment due to AEs: 21.3%
[3]; 94 patients, thirty-five SAEs
  Patients with SAEs: 30.9%
[3]; all grades
  Incidence of hyperglycemia related to linperlisib: 2.1%
[3]; compared with other PI3K inhibitors
  Incidence of diarrhea, colitis, and hepatotoxicity: very low
[4]; 20 to 200 mg, 16/25, 95% CI 45.2–82.8
  Objective response rate (ORR): 64%
[4]; 20 to 200 mg, 18/25, 95% CI 54.4–89.6
  Disease control rate (DCR): 72%
[4]; highest 200 mg/day dose
  Dose-limiting toxicities: no dose-limiting toxicities were observed
[5]
  Route of excretion: primarily excreted through the kidneys
[6]
  Tumor volume: reduced tumor volume
[7]
  Apoptosis and proliferation: induce apoptosis and inhibit the proliferation
